This note sets out measurements from article PMC6430387, “Vertebrate odorant binding proteins as antimicrobial humoral components of innate immunity for pathogenic microorganisms” (PLoS ONE, 2019).

Assay type in all cases: binding
For assay [1], the target named is T1, bovine OBP (6-His-bOBP) (Bos taurus, UniProt P07435).
T1 construct: domain-swapped homodimer
T1 sequence (P07435 1-159): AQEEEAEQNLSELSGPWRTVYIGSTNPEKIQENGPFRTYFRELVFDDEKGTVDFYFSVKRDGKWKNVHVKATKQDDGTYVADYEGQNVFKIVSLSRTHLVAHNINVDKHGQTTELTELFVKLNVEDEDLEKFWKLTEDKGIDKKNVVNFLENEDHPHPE
As to the kind of experiment: competitive displacement of 1-aminoanthracene, fluorescence. Conditions: read-out: Kdapp.

Assay [2] concerns the target T2, porcine OBP (6-His-pOBP) (Sus scrofa, UniProt P81245).
T2 construct: monomer
T2 sequence (P81245 1-157): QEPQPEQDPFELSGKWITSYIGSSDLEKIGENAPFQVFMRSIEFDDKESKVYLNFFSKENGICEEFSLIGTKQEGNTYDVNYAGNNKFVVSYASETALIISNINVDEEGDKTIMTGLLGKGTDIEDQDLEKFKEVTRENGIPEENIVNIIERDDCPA
The assay is described as above. Conditions: read-out: Kdapp.

The target in assay [3] is T2, porcine OBP (6-His-pOBP). Description: retention on OBP-Ni-NTA agarose filter; eluate quantified. Conditions: 5 and 10 μM ligand loaded; submillimolar immobilised OBP; uncoupled resin as control.
The target in assay [4] is T1, bovine OBP (6-His-bOBP). Description: direct fluorescence titration.
The target in assay [5] is T2, porcine OBP (6-His-pOBP). Description: direct fluorescence titration.
Assay [6] addresses T2, porcine OBP (6-His-pOBP). Description: retention on OBP-Ni-NTA agarose filter, chromatography-MS. Conditions: 0.34 μM ligand loaded; submillimolar immobilised OBP.
The target of assay [7] is T1, bovine OBP (6-His-bOBP). Description: retention on OBP-Ni-NTA agarose filter; chromatography-MS. Conditions: 10-40 μM ligand loaded; submillimolar immobilised OBP; uncoupled resin as control.

`CC(C)=CCC/C(C)=C/CC/C(C)=C/CO` [farnesol]: the IC50 at bovine OBP (6-His-bOBP) [1] was 3700 nM; on porcine OBP (6-His-pOBP) [2] it was 770 nM.
In the case of `Cn1c2cccc(=O)c-2nc2ccccc21` [pyocyanin], at porcine OBP (6-His-pOBP) [3], the “% retention” value was 66±13% and 85±15%.
For orientation: Kd means the free concentration of one partner at which half of the binding sites on the other are occupied at equilibrium, for simple one-to-one binding. In the case of `Nc1cccc2cc3ccccc3cc12` [1-aminoanthracene], the Kd at bovine OBP (6-His-bOBP) [4] worked out at 720 nM; at porcine OBP (6-His-pOBP) [5], 770 nM.
In the case of `CCCCCCCCCC(=O)CC(=O)N[C@H]1CCOC1=O` [oxo-C12AHL, N-(3-oxododecanoil)-L-homoserine-lactone], the “% bound” value on porcine OBP (6-His-pOBP) [6] was 89.2±2.4%.
For `CCCC(=O)N[C@H]1CCOC1=O` [C4AHL, N-butyryl-L-homoserine-lactone], the “% retention” value on bovine OBP (6-His-bOBP) [7] is 63.2±5.8%-80.6±4.2%.
